Read-outs that look alike come from different tables or passages of the source.
Assays:
[1] = in vivo; cited from earlier work
[2] = In vivo pharmacokinetic studies, oral and subcutaneous; design: species or system male Wistar rats; settings: for AUC(0-t): plasma
Procedure: In vivo pharmacokinetic studies were performed using male Wistar rats weighing 250-300 g. The protocol was duly approved by the Institutional Animal Ethics Committee (IAEC) of Panjab University, Chandigarh, India. The animals were divided into four groups (n=6). Group 1 was administered 2.5 Lacs International units (IU) subcutaneous retinoic acid and vitamin D3 SLNs simultaneously, Group 2 was also simultaneously administered 2.5 Lacs IU free retinoic acid and vitamin D3. Group 3 was administered simultaneously 1 Lac IU oral Retinoic acid and vitamin D3 SLNs, Group 4 was administered simultaneously 1 Lac IU oral free Retinoic acid and vitamin D3. The blood samples (0.5 mL) were withdrawn from sinus under clavicle and, collected into heparinized micro-centrifuge tubes (containing […] of 1000 IU heparin/mL of blood) at 0.5 h, 1 h, 2 h, 4 h, 8 h, 12 h, 24 h, 48 h, 72 h, 96 h, 120 h, 144 h, 168 h. After each sampling, 1 mL of dextrose-normal saline was administered to prevent changes in the central compartment volume and electrolytes. Plasma was separated by centrifuging the blood samples at 4000 rpm for 10 min at 4° C. After centrifugation, the plasma obtained was stored at −20° C. until analysis.
500 microliter blank plasma was taken and into it added 20 microliter stock standard dilutions of different concentrations (0.01 mcg to 1 mcg) (vortex) and added 400 microliter of chilled ethanol (vortex) and to it was added 2 ml (n-Hexane:ethylacetate (90:10) (Vortex) and the same was kept at −20° C. for 5 min followed by Cold centrifuge at 5000 rpm for 5 min finally separating the upper layer carefully and drying the solution under rotavapour/nitrogen gas, after drying add 250 microliter of acetonitrile and inject the sample to HPLC/UPLC. The method was applied for extraction procedure for Pharmacokinetic samples after giving SLNs and free drugs of Retinoic acid and vitamin D3 formulation to rats as oral/subcutaneous routes and sampling time points (0.5 h, 1 h, 2 h, 4 h, 8 h, 12 h, 24 h, 48 h, 72 h, 96 h, 120 h, 144 h, 168 h).

SMILES: C=C1CC[C@H](O)C/C1=C/C=C1\CCC[C@]2(C)[C@@H]([C@H](C)CCCC(C)C)CC[C@@H]12 [vitamin D3, cholecalciferol]
- Cmax in plasma [1]: not more than 75 ng/ml

SMILES: CC1=C(/C=C/C(C)=C/C=C/C(C)=C/C(=O)O)C(C)(C)CCC1 [ATRA-S, all-trans retinoic acid]
- Cmax ([2]; male, Wistar, 1 Lac IU, plasma ATRA, oral administration, rat, read-out: Cmax): 151 ng/mL
- AUC(0-t) ([2]; male, Wistar, rat, po, 1 Lac I.U, plasma ATRA, single dose oral, 1 Lac I.U, rat, read-out: AUC (0-T)): 357 ng·h/mL
- AUC(0-t) ([2]; male, Wistar, rat, po, 1 Lac I.U, plasma ATRA, single dose oral, 1 Lac I.U, rat, read-out: AUC (T-∞)): 714 ng·h/mL
- AUC(0-t) ([2]; male, Wistar, rat, po, 1 Lac IU, plasma ATRA, oral administration, rat, read-out: AUC0-t): 356 ng·h/mL
- AUC(0-t) ([2]; male, Wistar, rat, po, 1 Lac IU, plasma ATRA, oral administration, rat, read-out: AUCt-∞): 713 ng·h/mL
- AUC(0-t) ([2]; male, Wistar, rat, sc, 2.5 Lac I.U, plasma ATRA, single dose subcutaneous, 2.5 Lac I.U, rat, read-out: AUC (0-T)): 2820 ng·h/mL
- AUC(0-t) ([2]; male, Wistar, rat, sc, 2.5 Lac I.U, plasma ATRA, single dose subcutaneous, 2.5 Lac I.U, rat, read-out: AUC (T-∞)): 2950 ng·h/mL
- AUC(0-t) ([2]; male, Wistar, rat, sc, 2.5 Lacs IU, plasma ATRA, single dose subcutaneous, rat, read-out: AUC0-t): 2820 ng·h/mL
- AUC(0-inf) ([2]; male, Wistar, sc, 2.5 Lacs IU, plasma ATRA, single dose subcutaneous, rat): 2950 ng·h/mL
- Cmax ([2]; male, Wistar, sc, 2.5 Lacs IU, plasma ATRA, single dose subcutaneous, rat, read-out: Cmax): 1390 ng/mL
- Cmax ([2]; male, Wistar, sc, plasma ATRA, single dose subcutaneous injection, 2.5 Lac I.U, rat, read-out: Cmax): 1400 ng/mL
- half-life ([2]; male, Wistar, sc, plasma ATRA, single dose subcutaneous, 2.5 Lac I.U, rat): 57 min
- Tmax ([2]; male, Wistar, sc, plasma ATRA, single dose subcutaneous, 2.5 Lac I.U, rat, read-out: Tmax): 30 min
- half-life ([2]; male, Wistar, plasma ATRA, single dose oral, 1 Lac I.U, rat): 290 min
- Cmax ([2]; male, Wistar, plasma ATRA, single dose oral, 1 Lac I.U, rat, read-out: Cmax): 151 ng/mL
- Tmax ([2]; male, Wistar, plasma ATRA, single dose oral, 1 Lac I.U, rat, read-out: Tmax): 54 min
- Kel ([2]; plasma ATRA, single dose oral, 1 Lac I.U, rat): 0.17
- Kel ([2]; plasma ATRA, single dose subcutaneous, 2.5 Lac I.U, rat): 0.74
- plasma ATRA dropped to an undetectable level at, after dosing ([2]; rat plasma): 4 h

SMILES: C=C1CC[C@H](O)C/C1=C/C=C1\CCC[C@]2(C)[C@@H]([C@H](C)CCCC(C)C)CC[C@@H]12 [Vitamin D3-S, cholecalciferol]
- Cmax ([2]; male, Wistar, rat, in vivo, po): < 25 ng/mL
- Tmax ([2]; male, Wistar, rat, in vivo, po): 0 min
- Cmax ([2]; male, Wistar, rat, in vivo, sc): < 25 ng/mL
- Tmax ([2]; male, Wistar, rat, in vivo, sc): 0 min
- Kel ([2]; plasma vitamin D3, single dose oral, 1 Lac IU, rat): 0.0
- Kel ([2]; plasma vitamin D3, single dose subcutaneous, 2.5 Lac I.U, rat): 0.0
- CL ([2]; rat, in vivo, po): 0.0 mL/h/g
- T1/2 ([2]; rat, in vivo, po): 0 h
- CL ([2]; rat, in vivo, sc): 0.0 mL/h/g
- T1/2 ([2]; rat, in vivo, sc): 0 h

Reference: patent publication US9907758B2, “Process for preparing solid lipid sustained release nanoparticles for delivery of vitamins” (Department of Biotechnology (DBT), priority 2012, dated 2018)
